Data as given in patent US20030165854A1, “Marker genes responding to treatment with toxins” (priority 2000, published 2003).

What was measured:
[1] = test system: rat liver cDNAs SEQ ID NOs: 1-61; format: in vivo, Han/Wistar rat; settings: Strain HW; for Maximum Abundance, SEQ ID NO 14, Clone ID 700330824: Sex F
[2] = test system: rat liver cDNAs SEQ ID NOs: 1-61; format: in vivo, Han/Wistar rat; settings: Strain HW, Sex F

| Compound | Maximum Abundance, SEQ ID NO 15, Clone ID 700024728 [1] | Maximum Abundance, SEQ ID NO 16, Clone ID 700024834 [1] | Maximum Abundance, SEQ ID NO 19, Clone ID 700062240 [1] | Maximum Abundance, SEQ ID NO 21, Clone ID 700064131 [1] | Maximum Abundance, SEQ ID NO 31, Clone ID 700140450 [1] | Maximum Abundance, SEQ ID NO 34, Clone ID 700177158 [1] | Maximum Abundance, SEQ ID NO 38, Clone ID 700185871 [1] | Maximum Abundance, SEQ ID NO 41, Clone ID 700248367 [1] | Maximum Abundance, SEQ ID NO 45, Clone ID 700305380 [1] | Maximum Abundance, SEQ ID NO 48, Clone ID 700363174 [1] | Maximum Abundance, SEQ ID NO 50, Clone ID 700480077 [1] | Maximum Abundance, SEQ ID NO 51, Clone ID 700483222 [1] | Maximum Abundance, SEQ ID NO 53, Clone ID 700818852 [1] | Maximum Abundance, SEQ ID NO 54, Clone ID 700937735 [1] | Maximum Abundance, SEQ ID NO 57, Clone ID 701341861 [1] | Maximum Abundance, SEQ ID NO 61, Clone ID 701637512 [1] | Maximum Abundance, SEQ ID NO 14, Clone ID 700330824 [1] | Maximum Abundance, SEQ ID NO 12, Clone ID 700062506 [2] | further results |
| --- | --- | --- | --- | --- | --- | --- | --- | --- | --- | --- | --- | --- | --- | --- | --- | --- | --- | --- | --- |
| CC(=O)Nc1cccc2c1-c1ccccc1C2 [4-AAF, 4-acetylaminofluorene] | 3 | 3 | 5 | 3 | 8 | 3 | 3 | 3 | 4 | 3 | 3 | 3 | 5 | 8 | 3 | 4 | 3 | 3 | Maximum Abundance, SEQ ID NO 22, Clone ID 700065081 [1]: 3; Maximum Abundance, SEQ ID NO 25, Clone ID 700127949 [1]: 3; Maximum Abundance, SEQ ID NO 26, Clone ID 700132557 [1]: 7; Maximum Abundance, SEQ ID NO 27, Clone ID 700135733 [1]: 4; Maximum Abundance, SEQ ID NO 28, Clone ID 700135850 [1]: 3; Maximum Abundance, SEQ ID NO 30, Clone ID 700140375 [1]: 3; Maximum Abundance, SEQ ID NO 37, Clone ID 700182016 [1]: 3; Maximum Abundance, SEQ ID NO 43, Clone ID 700253694 [1]: 3; Maximum Abundance, SEQ ID NO 44, Clone ID 700303850 [1]: 3; Maximum Abundance, SEQ ID NO 58, Clone ID 701574951 [1]: 3; Maximum Abundance, SEQ ID NO 13, Clone ID 700135749 [2]: 4 |
| S=C=Nc1cccc2ccccc12 [ANIT, α-naphthylisothiocyanate] | 3 | 3 | 5 | 3 | 8 | 3 | 3 | 3 | 4 | 3 | 3 | 3 | 5 | 8 | 3 | 4 | 3 | 3 | Maximum Abundance, SEQ ID NO 17, Clone ID 700059927 [1]: 4; Maximum Abundance, SEQ ID NO 18, Clone ID 700060675 [1]: 4; Maximum Abundance, SEQ ID NO 20, Clone ID 700063569 [1]: 3; Maximum Abundance, SEQ ID NO 23, Clone ID 700067778 [1]: 3; Maximum Abundance, SEQ ID NO 24, Clone ID 700123633 [1]: 3; Maximum Abundance, SEQ ID NO 29, Clone ID 700137416 [1]: 4; Maximum Abundance, SEQ ID NO 32, Clone ID 700144406 [1]: 4; Maximum Abundance, SEQ ID NO 33, Clone ID 700175249 [1]: 7; Maximum Abundance, SEQ ID NO 35, Clone ID 700179766 [1]: 3; Maximum Abundance, SEQ ID NO 36, Clone ID 700181614 [1]: 3; Maximum Abundance, SEQ ID NO 39, Clone ID 700198357 [1]: 3; Maximum Abundance, SEQ ID NO 40, Clone ID 700230123 [1]: 4; Maximum Abundance, SEQ ID NO 49, Clone ID 700478138 [1]: 5; Maximum Abundance, SEQ ID NO 55, Clone ID 701197728 [1]: 3; Maximum Abundance, SEQ ID NO 56, Clone ID 701257766 [1]: 3; Maximum Abundance, SEQ ID NO 60, Clone ID 701597659 [1]: 3 |
